Values quoted from earlier work in paper PMC4895201 (Journal of natural products, 2009).

How the values were obtained:
[1] = tested on: various solid cell lines
[2] = tested on: epidermal growth factor receptor (ErbB family); details: early research
[3] = tested on: breast and prostate xenografts; details: compared with KF (3)

Substance | antitumor activity, in vitro and in vivo [1] | blockade of epidermal growth factor receptor (ErbB family) [2] | in vivo efficacy against breast and prostate xenografts [3]
kahalalide F [KF (3)] | significant in vitro and in vivo antitumor activity against various solid cell lines | blocked the epidermal growth factor receptor (ErbB family) | 
(4S)- methylhexanoic kahalalide F [isoKF (4)] | significant in vitro and in vivo antitumor activity against various solid cell lines |  | enhanced efficacy against breast and prostate xenografts
